Test results taken from article PMC9430770 (Microbiology Spectrum, 2022).

How the values were obtained:
[1] = target: T1, CaEno1 (Candida albicans, UniProt P30575); details: read-out: IC50 inhibiting enolase activity; CaEno1 30 nM, 2-PG 1 mM
T1 sequence (P30575 1-440): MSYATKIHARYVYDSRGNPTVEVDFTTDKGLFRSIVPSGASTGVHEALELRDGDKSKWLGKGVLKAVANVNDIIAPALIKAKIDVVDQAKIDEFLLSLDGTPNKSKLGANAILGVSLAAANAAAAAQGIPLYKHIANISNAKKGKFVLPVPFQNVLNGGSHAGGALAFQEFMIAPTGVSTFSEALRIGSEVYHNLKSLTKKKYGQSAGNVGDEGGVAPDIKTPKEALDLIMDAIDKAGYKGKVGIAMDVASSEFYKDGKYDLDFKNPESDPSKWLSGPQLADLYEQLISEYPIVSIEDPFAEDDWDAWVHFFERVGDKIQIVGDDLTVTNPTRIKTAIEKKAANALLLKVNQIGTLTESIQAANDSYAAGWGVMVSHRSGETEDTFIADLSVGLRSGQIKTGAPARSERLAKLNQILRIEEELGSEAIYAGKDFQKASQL
Protocol: Data are shown as the means ± standard deviations. […] Data are shown as the means ± standard deviations.
Enolase activity was determined by direct spectrophotometric assay via measuring the increase of absorbance at 240 nm of phosphoenolpyruvate (PEP) as described previously with some modifications ([54]). Briefly, the reaction buffer (pH 7.0) containing 10 mM imidazole, 200 mM KCl, and 0.5 mM MgAc in a final reaction volume of 100 μL was mixed with Eno1 (a final concentration of 30 nM), followed by the mixture of 2-phosphoglycerate (2-PG) (Yuanye Biotech Shanghai) with a final concentration of 1 mM. The enolase activity of Eno1 was evaluated by measuring the increase of absorbance (OD240) at room temperature for 10 min. […] The well-known enolase inhibitor sodium fluoride (NaF; Sangon Biotech) was initiated from 5 mM and used as a control ([29]). Inhibition curves were fitted by nonlinear regression (four parameters) using the GraphPad Prism software.

[2] = tested on: Candida albicans 103; assay: Checkerboard microdilution assay with fluconazole; type: cell-based
Source text: Ta b l e S3. Interaction of fluconazole ( FLC) and BE probes against isolates of Candida albicans
Compounds Molecular structure Individual action Interaction MIC(μg/ mL ) FICI Mode of
MIC (μg /mL) FLC Compounds interaction

[3] = tested on: C. albicans eno1/eno1 mutant strain; assay: Galleria mellonella infection model, eno1/eno1 strain; type: in vivo, Candida albicans; details: G. mellonella, 10 mg/kg
Protocol: To assess whether Eno1 is a therapeutic target of BE, we constructed a homozygous deletion strain for the ENO1 gene (eno1/eno1). We then investigated the difference in the antifungal efficacy of BE on the infections caused by the parent strain SN152 and the eno1/eno1 strain in the Galleria mellonella infection model. We divided the G. mellonella into 5 groups, with 10 larvae in each group. All 10 larvae died after a 24-h infection with the SN152 strain, while only 3 larvae died after 24 h when infected with the eno1/eno1 strain; the remaining larvae died within 7 days. Compared with the group infected with the parent strain, the survival time of the group infected with the eno1/eno1 strain was longer (P < 0.01) (Fig. 4A). […] The survival rate of larvae in the BE (10 mg/kg of body weight)-treated, SN152 strain-infected group was extended by 30%, compared with that in the group infected with the SN152 strain but without antifungal drug treatment (P < 0.001) (Fig. 4B). […] All 10 larvae in the BE-treated group died within 6 days, and all 10 larvae without BE treatment were killed within 7 days (Fig. 4C). However, FLC (10 mg/kg) can extend the survival rate of larvae infected by the eno1/eno1 strain by 60% (P < 0.01) (Fig. 4D) compared with the group infected with the eno1/eno1 strain without antifungal drug treatment.
FIG 4 Eno1 acts as a therapeutic target of BE. […] Each curve represents a group of 10 larvae (n =10) monitored daily for survival for up to 10 days after infection. […]
Virulence testing of C. albicans was done in Galleria mellonella as described previously ([56]). […] After growth in YPD media overnight at 30°C and 200 rpm, C. albicans SN152 cells or eno1/eno1 mutant cells were washed with PBS 3 times and diluted to the desired concentration (1 × 10^7 cells/mL) determined by counting with a hemacytometer. […] The death of G. mellonella was assessed daily and analyzed statistically by the Kaplan-Meier method (log-rank test).

[4] = target: the molecule itself; assay: crystal structure; X-ray crystals of CaEno1 alone and of CaEno1 with 2-PG, sitting drop at 13°C, space group C2; four Eno1 chains (two dimers) in the asymmetric unit

## [F-].[Na+] [NaF, sodium fluoride]
[1]
  IC50: 504 ± 7.1 µM

## C#CCOc1cc(C2(C(F)(F)F)N=N2)ccc1COc1cc2oc(-c3ccccc3)cc(=O)c2c(O)c1N [BE-1]
[2]; MIC of FLC in combination with the compound
  Interaction MIC FLC: > 64 µg/mL
[2]; MIC of the compound in combination with FLC
  Interaction MIC Compounds: 1 µg/mL
[2]; combination with FLC
  FICI: 1.01
[2]; combination with FLC, FLC-resistant C. albicans
  Mode of interaction: Indifference
[2]; compound alone
  Individual action MIC: > 64 µg/mL

## OC(Cn1cncn1)(Cn1cncn1)c1ccc(F)cc1F [FLC, fluconazole]
[3]
  survival rate of larvae extended versus infected group without drug treatment: 60%

B1: C. albicans Eno1 (enzyme, UniProt P30575 1-440, looked up)
chain: MSYATKIHARYVYDSRGNPTVEVDFTTDKGLFRSIVPSGASTGVHEALELRDGDKSKWLGKGVLKAVANVNDIIAPALIKAKIDVVDQAKIDEFLLSLDGTPNKSKLGANAILGVSLAAANAAAAAQGIPLYKHIANISNAKKGKFVLPVPFQNVLNGGSHAGGALAFQEFMIAPTGVSTFSEALRIGSEVYHNLKSLTKKKYGQSAGNVGDEGGVAPDIKTPKEALDLIMDAIDKAGYKGKVGIAMDVASSEFYKDGKYDLDFKNPESDPSKWLSGPQLADLYEQLISEYPIVSIEDPFAEDDWDAWVHFFERVGDKIQIVGDDLTVTNPTRIKTAIEKKAANALLLKVNQIGTLTESIQAANDSYAAGWGVMVSHRSGETEDTFIADLSVGLRSGQIKTGAPARSERLAKLNQILRIEEELGSEAIYAGKDFQKASQL
notes: also called CaEno1; enolase; source: E. coli BL21(DE3), purified (Ni-NTA, Superdex 200 SEC)
[4]
  stoichiometry N: 2
